Test results: patent US20100292222A1, “CHEMICAL COMPOUNDS 751” (ASTRAZENECA AB, priority 2009, published 2010)

molecular target: T1, Androgen Receptor (AR) (Homo sapiens, UniProt P10275, T878A); assay: LNCaP Androgen Receptor Down-Regulation Cell Assay; type: cell-based; settings: LNCaP prostate carcinoma cell line; 20-22 hours incubation; immunofluorescence; 50% reduction of the AR signal
T1 construct: cell based immuno-fluorescence assay using the LNCaP prostate epithelial cell line; host or cells: LNCaP clone FGC prostate carcinoma cells
T1 sequence (P10275 1-920 T878A): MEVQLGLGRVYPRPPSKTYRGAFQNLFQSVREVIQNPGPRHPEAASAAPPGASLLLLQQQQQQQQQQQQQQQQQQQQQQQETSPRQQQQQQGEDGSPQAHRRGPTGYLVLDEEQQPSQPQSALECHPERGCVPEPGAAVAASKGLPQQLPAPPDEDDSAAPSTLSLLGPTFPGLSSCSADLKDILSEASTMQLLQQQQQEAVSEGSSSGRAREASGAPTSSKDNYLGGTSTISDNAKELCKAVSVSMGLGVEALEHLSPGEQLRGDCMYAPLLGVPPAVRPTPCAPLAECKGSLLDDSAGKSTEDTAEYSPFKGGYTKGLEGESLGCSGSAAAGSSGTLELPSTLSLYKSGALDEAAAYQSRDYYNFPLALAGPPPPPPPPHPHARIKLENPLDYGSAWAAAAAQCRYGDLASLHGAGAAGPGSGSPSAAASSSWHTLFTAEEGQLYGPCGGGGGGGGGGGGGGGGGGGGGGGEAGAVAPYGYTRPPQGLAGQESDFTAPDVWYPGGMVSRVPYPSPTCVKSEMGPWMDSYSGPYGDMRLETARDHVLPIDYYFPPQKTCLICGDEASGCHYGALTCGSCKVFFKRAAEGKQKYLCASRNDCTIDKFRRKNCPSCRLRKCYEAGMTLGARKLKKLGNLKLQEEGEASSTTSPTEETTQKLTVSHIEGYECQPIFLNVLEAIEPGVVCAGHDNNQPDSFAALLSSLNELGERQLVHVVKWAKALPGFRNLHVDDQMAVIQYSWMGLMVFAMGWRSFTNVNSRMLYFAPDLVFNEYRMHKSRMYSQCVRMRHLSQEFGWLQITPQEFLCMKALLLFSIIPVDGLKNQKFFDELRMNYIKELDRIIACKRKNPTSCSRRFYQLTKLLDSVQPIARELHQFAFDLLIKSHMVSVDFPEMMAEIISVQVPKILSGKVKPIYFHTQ
Procedure: The ability of compounds to reduce Androgen Receptor (AR) numbers was assessed in a cell based immuno-fluorescence assay using the LNCaP prostate epithelial cell line.
This immunofluorescence end point assay measures the ability of a test compound to down-regulate and reduce measured levels of the AR in the LNCaP prostate carcinoma cell line (LNCaP clone FGC (CRL-1740) obtained from the American Type Culture Collection (ATCC)).
LNCaP cells were cultured in Growth Medium (phenol red free Roswell Park Memorial Institute (RPMI) 1640 (Invitrogen Code no. 11835-063) containing 2 mM L-Glutamine (Invitrogen Code no. 25030-024) and 1% (v/v) Penicillin/Streptomycin (10000 units/ml Penicillin and 10000 μg/ml of Streptomycin utilising penicillin G (sodium salt) and streptomycin sulphate: prepared in normal saline, Invitrogen Code no. 15140122) and 10% (v/v) foetal bovine serum (FBS)) in a 5% CO2 air incubator at 37° C. Cells for assay were harvested from T175 stock flasks by washing once in PBS (phosphate buffered saline, pH 7.4) (Invitrogen Code no. 14190-094) and harvested using 5 mls of 1× Trypsin/ethylaminediaminetetraacetic acid (EDTA) (10× Trypsin-EDTA, 5.0 g/L Trypsin, 2.0 g/L of EDTA•4Na and 8.5 g/L of NaCl, without Phenol Red, Invitrogen Code no. 15400-054) diluted in PBS solution. A 5 ml volume of Growth Medium was added to each flask (as above except that 5% (v/v) charcoal stripped FBS (HyClone Code no. SH30068.03) was included instead of 10% (v/v) FBS). Cells were syringed at least twice using a sterile 18G×1.5″ (1.2×40 mm) broad gauge needle and cell density was measured using a haemocytometer. Cells were further diluted in Growth Medium plus 5% (v/v) charcoal stripped FBS and seeded at a density of 6.5×10^3 cells per well (in 90 ul) into transparent, black, tissue culture treated 96 well plates (Packard, No. 6005182).
Test data reported herein was generated using two different compounds preparation and dosing methods. In method (1) a 10 mM compound stock solution in 100% (v/v) DMSO was serially diluted in 4-fold steps in 100% (v/v) DMSO using a Thermo Scientific Matrix SerialMate. The diluted compounds were then further diluted 1 in 30 in assay media using a Thermo Scientific Matrix PlateMate and a 10 μl aliquot of this dilution was dosed to cells manually using a multi-channel pipette. In method (2) starting with a 10 mM compound stock solution, the Labcyte Echo 550 was used to generate a compound concentration response set diluted in 30 μl of assay media. The Echo 550 is a liquid handler that uses acoustic technology to perform direct microplate-to-microplate transfers of DMSO compound solutions. The system can be programmed to transfer volumes as low as […] in multiple increments between microplates and in so doing generates a serial dilution of compound which is then back-filled to normalise the DMSO is concentration across the dilution range. A 10 μl volume of diluted compound is then dosed to cells using a Thermo Scientific Matrix PlateMate.
Plates were incubated overnight at 37° C., 5% CO2. Wells were then dosed with compound prepared by one of the 2 methods above and further incubated for 20-22 hours at 37° C., 5% CO2. Plates were fixed by the addition of 20 μl of 10% (v/v) formaldehyde solution (in PBS) to each well (final formaldehyde conc.=1.67% (v/v)) and left at room temperature for 10 mins. This fixative solution was removed and cells were washed with 250 μl of PBS/0.05% (v/v) Tween 20 (PBST) using an automated plate washer. This process was then repeated twice more.
Immunostaining was performed at room temperature. Cells were permeabilised by the addition of 35 μl of PBS containing 0.5% Tween 20 and incubated for 1 hour at room temperature. Permeabilisation solution was removed and cells were washed with 250 μl of PBST using an automated plate washer. This process was then repeated twice more. […]

First: O=C1CN(CCOc2ccc(C3CCN(c4ccc5nnc(C(F)(F)F)n5n4)CC3)cc2)CCN1C1CC1 [Example 6, 1-cyclopropyl-4-[2-(4-{1-[3-(trifluoromethyl)[1,2,4]-triazolo[4,3-b]pyridazin-6-yl]piperidin-4-yl}phenoxy)ethyl]piperazin-2-one]
Second: CCN1CCN(CCOc2ccc(C3CCN(c4ccc5nnc(C(F)(F)F)n5n4)CC3)cc2)CC1=O [Example 18, 1-ethyl-4-[2-(4-{1-[3-(trifluoromethyl)[1,2,4]triazolo[4,3-b]pyridazin-6-yl]piperidin-4-yl}phenoxy)ethyl]piperazin-2-one]
The IC50 of the first is 1.6-fold higher: 510 nM for the first, 310 nM for the second. The second is the more potent here.

First: O=C1CN(CCOc2ccc(N3CCN(c4ccc5nnc(C(F)(F)F)n5n4)CC3)cc2)CCN1C1CC1 [Example 5, 1-cyclopropyl-4-[2-(4-{4-[3-(trifluoromethyl)[1,2,4]-triazolo[4,3-b]pyridazin-6-yl]piperazin-1-yl}phenoxy)ethyl]piperazin-2-one]
Second: CCN1CCN(CCOc2ccc(C3(O)CCN(c4ccc5nnc(C(F)(F)F)n5n4)CC3)cc2)CC1=O [Example 37, 1-ethyl-4-[2-(4-{4-hydroxy-1-[3-(trifluoromethyl)[1,2,4]triazolo[4,3-b]pyridazin-6-yl]piperidin-4-yl}phenoxy)ethyl]piperazin-2-one]
The IC50 of the first is 20-fold higher: 7800 nM for the first, 390 nM for the second.

CC(=O)N1CCN(CCOc2ccc(C3(O)CCN(c4ccc5nnc(C(F)(F)F)n5n4)CC3)c(C)c2)CC1 [Example 30, 4-{4-[2-(4-acetylpiperazin-1-yl)ethoxy]-2-methylphenyl}-1-[3-(trifluoromethyl)[1,2,4]-triazolo[4,3-b]pyridazin-6-yl]piperidin-4-ol] and Cc1cc(OCCN2CCN(C)C(=O)C2)ccc1C1(O)CCN(c2ccc3nnc(C(F)(F)F)n3n2)CC1 [Example 31, 4-[2-(4-{4-hydroxy-1-[3-(trifluoromethyl)[1,2,4]-triazolo[4,3-b]pyridazin-6-yl]piperidin-4-yl}-3-methylphenoxy)ethyl]-1-methylpiperazin-2-one] are within 1.5-fold of each other in IC50: 210 nM for the first, 260 nM for the second.

Going from CN1CCN(CCOc2ccc(C3CCN(c4ccc5nnc(C(F)(F)F)n5n4)CC3)cc2)C(=O)C1 [Example 8, 4-methyl-1-[2-(4-{1-[3-(trifluoromethyl)[1,2,4]triazolo[4,3-b]pyridazin-6-yl]piperidin-4-yl}phenoxy)ethyl]piperazin-2-one] to COCCN1CCN(CCCOc2ccc(C3CCN(c4ccc5nnc(C(F)(F)F)n5n4)CC3)cc2)CC1=O [Example 17, 1-(2-methoxyethyl)-4-[3-(4-{1-[3-(trifluoromethyl)[1,2,4]triazolo[4,3-b]pyridazin-6-yl]piperidin-4-yl}phenoxy)propyl]piperazin-2-one], the IC50 falls from 1000 nM to 530 nM (1.9-fold).

Compared with CC(=O)N1CCCN([C@H](C)COc2ccc(C3(O)CCN(c4ccc5nnc(C(F)(F)F)n5n4)CC3)cc2)CC1 (single isomer, unassigned) [Example 45, 4-{4-[2-(4-acetyl-1,4-diazepan-1-yl)propoxy]phenyl}-1-[3-(trifluoromethyl)[1,2,4]triazolo[4,3-b]pyridazin-6-yl]piperidin-4-ol], CC(=O)N1CCCN(CCOc2ccc(C3CCN(c4ccc5nnc(C(F)(F)F)n5n4)CC3)cc2)CC1 [Example 14, 6-(4-{4-[2-(4-acetyl-1,4-diazepan-1-yl)ethoxy]phenyl}piperidin-1-yl)-3-(trifluoromethyl)[1,2,4]-triazolo[4,3-b]pyridazine] is 2-fold higher in IC50: 82 nM for the first, 160 nM for the second.

Compared with C[C@@H](O)C(=O)N1CCN(CCOc2ccc(C3CCN(c4ccc5nnc(C(F)(F)F)n5n4)CC3)cc2)CC1 [Example 24, (2R)-1-oxo-1-{4-[2-(4-{1-[3-(trifluoromethyl)[1,2,4]triazolo[4,3-b]pyridazin-6-yl]piperidin-4-yl}phenoxy)ethyl]piperazin-1-yl}propan-2-ol], CN1CCN(CCOc2ccc(C3CCN(c4ccc5nnc(C(F)(F)F)n5n4)CC3)cc2)CCC1=O [Example 32, 4-methyl-1-[2-(4-{1-[3-(trifluoromethyl)[1,2,4]-triazolo[4,3-b]pyridazin-6-yl]piperidin-4-yl}phenoxy)ethyl]-1,4-diazepan-5-one] is 30-fold lower in IC50: 1700 nM for the first, 56 nM for the second.

Going from CC(C)N1CCN(CCCOc2ccc(C3CCN(c4ccc5nnc(C(F)(F)F)n5n4)CC3)cc2)CC1=O [Example 16, 1-(1-methylethyl)-4-[3-(4-{1-[3-(trifluoromethyl)[1,2,4]triazolo[4,3-b]pyridazin-6-yl]piperidin-4-yl}phenoxy)propyl]piperazin-2-one] to CN1CCN(CCCOc2ccc(C3CCN(c4ccc5nnc(C(F)(F)F)n5n4)CC3)cc2)CC1=O [Example 9, 1-methyl-4-[3-(4-{1-[3-(trifluoromethyl)[1,2,4]triazolo[4,3-b]pyridazin-6-yl]piperidin-4-yl}phenoxy)propyl]piperazin-2-one], the IC50 falls from 610 nM to 300 nM (2-fold).

CC(=O)N1CCN(CCOc2ccc(C3CCN(c4ccc5nnc(C(F)(F)F)n5n4)CC3)cc2)C[C@H]1C [Example 34, 6-[4-(4-{2-[(3R)-4-acetyl-3-methylpiperazin-1-yl]ethoxy}phenyl)piperidin-1-yl]-3-(trifluoromethyl)[1,2,4]triazolo[4,3-b]pyridazine] and CC(=O)N1CCN(CCOc2ccc(C3CCN(c4ccc5nnc(C(F)(F)F)n5n4)CC3)cc2)C[C@@H]1C [Example 33, 6-[4-(4-{2-[(3S)-4-acetyl-3-methylpiperazin-1-yl]ethoxy}phenyl)piperidin-1-yl]-3-(trifluoromethyl)[1,2,4]triazolo[4,3-b]pyridazine] are within 1.5-fold of each other in IC50: 67 nM for the first, 79 nM for the second.

Compound COC[C@@H](CN1CCN(C(C)=O)CC1)Oc1ccc(C2CCN(c3ccc4nnc(C(F)(F)F)n4n3)CC2)cc1 [Example 29, 6-(4-{4-[(1R)-2-(4-acetylpiperazin-1-yl)-1-(methoxymethyl)ethoxy]phenyl}piperidin-1-yl)-3-(trifluoromethyl)[1,2,4]triazolo[4,3-b]pyridazine] has an IC50 of 490 nM.
